From ChEMBL document CHEMBL1201862, “PubChem BioAssay data set” (2004)
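Cultured in 96-well plates, cells were exposed to test compound for 48 hours across five concentrations. GI50 is the concentration that inhibits growth by half.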 Activity calls are given as the source filed them. No stated cut-off is given here; in the data, active = GI50 up to about 1.1 µM and inactive = higher.

Columns and labels:
Assay in all cases: DTP human tumour cell line panel, 48 h
HOP-62 = tested on: HOP-62
NCI-H23 = tested on: NCI-H23
NCI-H522 = tested on: NCI-H522
SF-539 = tested on: SF-539
HCC 2998 = tested on: HCC 2998
DLD-1 = tested on: DLD-1
SK-MEL-28 = tested on: SK-MEL-28
LXFL 529 = tested on: LXFL 529
SF-268 = tested on: SF-268
HCT-116 = tested on: HCT-116
CAKI-1 = tested on: CAKI-1

Measured: GI50

CC(=O)OC1/C=C(\C)C(OC(C)=O)C/C=C(/C)CCC2C(/C=C/C1=O)C2(C)C (stereo not drawn)
inactive: HOP-62 92.5 µM | NCI-H23 > 100 µM | NCI-H522 47.8 µM | SF-539 > 100 µM | HCC 2998 > 100 µM | DLD-1 > 100 µM | SK-MEL-28 > 100 µM | LXFL 529 > 100 µM | SF-268 > 100 µM | HCT-116 > 100 µM

CSc1nc2nc(C)c(C)nc2c(=O)[nH]1
inactive: HOP-62 > 100 µM | NCI-H23 > 100 µM | CAKI-1 > 100 µM | NCI-H522 > 100 µM | HCC 2998 > 100 µM | DLD-1 > 100 µM | SK-MEL-28 > 100 µM | LXFL 529 > 100 µM | SF-268 > 100 µM | HCT-116 > 100 µM

COc1ccc2c(c1)OCCC1=C2SCC2(C)CCN=C12 (stereo not drawn)
inactive: HOP-62 > 100 µM | NCI-H23 61.7 µM | NCI-H522 > 100 µM | SF-539 > 100 µM | HCC 2998 > 10 µM | DLD-1 > 100 µM | SK-MEL-28 > 100 µM | LXFL 529 > 100 µM | SF-268 > 100 µM | HCT-116 > 100 µM

O=c1c2ccccc2nc(-c2ccc(Br)cc2)n1NC1OC(CO)C(O)C(O)C1O (stereo not drawn)
inactive: HOP-62 > 100 µM | NCI-H23 > 100 µM | CAKI-1 > 100 µM | NCI-H522 81.7 µM | SF-539 > 100 µM | HCC 2998 82.4 µM | SK-MEL-28 > 100 µM | LXFL 529 45.1 µM | SF-268 69.5 µM | HCT-116 > 100 µM

c1ccc2c(c1)nnn2CNc1ccc(N2CCOCC2)cc1
inactive: HOP-62 > 100 µM | NCI-H23 > 100 µM | NCI-H522 > 100 µM | SF-539 > 100 µM | HCC 2998 > 100 µM | DLD-1 > 100 µM | SK-MEL-28 > 100 µM | LXFL 529 > 100 µM | SF-268 > 100 µM | HCT-116 > 100 µM

COc1ccc(/N=C\c2cc(OC)c(OC)c(OC)c2)cc1
inactive: HOP-62 > 100 µM | NCI-H23 > 100 µM | SF-539 87.1 µM | DLD-1 > 100 µM | SK-MEL-28 > 100 µM | LXFL 529 51.6 µM | SF-268 > 100 µM | HCT-116 > 100 µM

CCOC(=O)/C(=C/c1ccc[nH]1)P(=O)(OCC)OCC
inactive: HOP-62 > 100 µM | NCI-H23 > 100 µM | CAKI-1 > 100 µM | NCI-H522 > 100 µM | SF-539 > 100 µM | HCC 2998 > 100 µM | DLD-1 > 100 µM | SK-MEL-28 > 100 µM | LXFL 529 > 100 µM | SF-268 > 100 µM | HCT-116 > 100 µM

O=C1NC2OCC(O)C(O1)C2O (stereo not drawn)
inactive: HOP-62 > 100 µM | NCI-H23 > 100 µM | CAKI-1 > 100 µM | NCI-H522 > 100 µM | SF-539 > 100 µM | DLD-1 > 100 µM | SK-MEL-28 > 100 µM | LXFL 529 > 100 µM | SF-268 > 100 µM

C(=C\c1csnn1)/c1cccnc1
inactive: HOP-62 > 100 µM | NCI-H23 > 100 µM | NCI-H522 > 100 µM | SF-539 > 100 µM | HCC 2998 > 100 µM | DLD-1 > 100 µM | SK-MEL-28 > 100 µM | LXFL 529 75.7 µM | SF-268 > 100 µM | HCT-116 > 100 µM

C[C@]12CC[C@H](OC3CCCCO3)CC1=CC[C@@H]1C2CC[C@]2(C)/C(=N/OCCC#N)CCC12 (stereo partly drawn)
inactive: HOP-62 > 100 µM | NCI-H23 11.4 µM | CAKI-1 45.8 µM | NCI-H522 18.5 µM | SF-539 83.4 µM | HCC 2998 > 100 µM | DLD-1 > 100 µM | SK-MEL-28 > 100 µM | LXFL 529 17.7 µM | HCT-116 5.73 µM

C=C1COC(/C=C(\C)CC/C=C(\C)CCl)C1 (stereo not drawn)
inactive: HOP-62 > 100 µM | NCI-H23 > 100 µM | NCI-H522 > 100 µM | SF-539 > 100 µM | HCC 2998 > 100 µM | DLD-1 > 100 µM | SK-MEL-28 > 100 µM | LXFL 529 > 100 µM | SF-268 > 100 µM | HCT-116 > 100 µM

CSC(=N)N1N=C2/C(=C/c3ccccc3)CCC[C@H]2[C@H]1c1ccccc1
inactive: HOP-62 6.65 µM | NCI-H23 4.88 µM | NCI-H522 4.23 µM | SF-539 6.58 µM | HCC 2998 3.27 µM | DLD-1 3.48 µM | SK-MEL-28 3.13 µM | LXFL 529 4.55 µM | SF-268 15.2 µM | HCT-116 2.83 µM

O=C1NC2(CCCCC2)C2CCCCC(O)C12 (stereo not drawn)
inactive: HOP-62 > 100 µM | NCI-H23 > 100 µM | CAKI-1 > 100 µM | SF-539 > 100 µM | HCC 2998 > 100 µM | DLD-1 > 100 µM | SK-MEL-28 > 100 µM | LXFL 529 > 100 µM | SF-268 > 100 µM | HCT-116 > 100 µM

C=C1CCC2[C@@H](CCC3[C@]2(C)CCC[C@]3(C)C(=O)OC)C1CCO (stereo partly drawn)
inactive: HOP-62 19.8 µM | NCI-H23 9.35 µM | CAKI-1 12.1 µM | NCI-H522 5.2 µM | SF-539 13.4 µM | DLD-1 14.2 µM | SK-MEL-28 13.9 µM | LXFL 529 8.89 µM | SF-268 11.3 µM | HCT-116 5.98 µM
